Data reported in PubChem BioAssay AID1963966 (Molecular Pharmacology Branch, DTP, NCI, 2024).

System: 935938-334-R-J1-PDC spheroids with HUVEC/MSC, viability
Test: Anticancer human tumor 935938-334-R-J1-PDC patient-derived small intestine adenocarcinoma cell line growth inhibition [PI3K]
Settings: for IC50: curve of first compound; for viability, T/C: stronger effect = lower value
Description: Combinatorial screen of targeted agents with the PI3K inhibitors inavolisib, alpelisib, duvelisib, and copanlisib in multi-cell type tumor spheroids
A high-throughput screen of multi-cell type tumor spheroids was designed to identify active combinations of targeted small molecules and PI3K pathway inhibitors. Complex spheroids include a stromal component modeled by human endothelial cells (HUVEC) and fibroblasts modeled by human mesenchymal stem cells (MSCs). The concentration ranges selected for each drug and investigational agent were based upon clinically achievable concentrations if the clinical Cmax of the agent was known.
Compounds. The drugs and investigational agents: inavolisib (NSC800729), alpelisib (NSC765974), duvelisib (NSC772469), copanlisib (NSC816437), ipatasertib (NSC767898), afuresertib (NSC778305), talazoparib (NSC767125), sapanisertib (NSC764658), selumetinib (NSC741078), tovorafenib (DAY101, NSC766906), vemurafenib (NSC761431), ravoxertinib (NSC781343), sotorasib (NSC818433), MRTX1133 (NSC 836407), abemaciclib (NSC 768073), palbociclib (NSC758247), venetoclax (NSC 766270), SY5609 (NSC837396), enzalutamide (NSC755605), and darolutamide (NSC825331), were obtained from the National Cancer Institute (NCI) Developmental Therapeutics Program Chemical Repository. The FDA-approved anticancer drug set is available from the NCI Developmental Therapeutics Program. […] The stock solutions were prepared in dimethyl sulfoxide (DMSO, Sigma-Aldrich, St. Louis, MO, cat. D2650) at 800-fold the tested concentration and stored at -70 degrees C prior to their use. All drugs and investigational agents were tested over a range starting from a high concentration at or near the clinical Cmax and decreasing in half-log increments. If the clinical Cmax for an agent had not been determined, the highest concentration tested was 10 microM.
Cell Culture. All cells were maintained in an incubator at 37 degrees C and 5% CO2 with 95% humidity. The PDC lines were cultured according to standard operating procedures established by the NCI PDMR (https://pdmr.cancer.gov/sops/default.htm). All PDCs were thawed and cultured in Matrigel-coated flasks prepared with a working solution of 1X Ham's F-12 nutrient mix, without supplementation (Invitrogen, Waltham, MA, cat. 11765054), 100 U/mL penicillin-streptomycin (Invitrogen, cat. 15140122), and 2.5% Matrigel (Corning Inc., Corning, NY, cat. 354248) for the first three passages. The 354836-022-R-J1-PDC, 475296-252-R-J1-PDC, and 997726-040-R-J2-PDC lines were cultured in 6A media, which includes advanced DMEM/F-12 (Thermo Fisher Scientific, cat. 12634028), 10 mM HEPES (Thermo Fisher Scientific, cat. 15630080), 1X GlutaMAX supplement (Thermo Fisher Scientific, cat. 35050061), 0.1 mg/mL primocin (InvivoGen, San Diego, CA, cat. ant-pm-2), 10% defined fetal bovine serum, heat inactivated (HyClone Laboratories Inc., Logan, UT, cat. SH30070.03HI), 50% L-WRN conditioned media (ATCC, cat. CRL-3276), 1.25 mM N-Acetyl-L-cysteine (Sigma-Aldrich, cat. A9165), 10 mM nicotinamide (Sigma-Aldrich, cat. N0636), 1X B-27 supplement (Thermo Fisher Scientific, cat. 17504044), 1X N-2 supplement (Thermo Fisher Scientific, cat. 17502048), and 10 microM Y-27632 dihydrochloride (Tocris Bioscience, Bristol, United Kingdom, cat. 1254). The 624824-186-R-J2-PDC line was cultured in 6C/Colon 1B media, which includes all 6A media components plus 50 ng/mL human EGF recombinant protein (Thermo Fisher Scientific, cat. PHG0311). […]

[1] = second compound 0.00316 µM, first compound 0.0316 µM
[2] = second compound 0.00316 µM, first compound 0.1 µM
[3] = second compound 0.00316 µM, first compound 0.316 µM
[4] = second compound 0.00316 µM, first compound 1 µM
[5] = second compound 0.00316 µM, first compound 3.16 µM
[6] = second compound 0.00316 µM, first compound 10 µM
[7] = second compound 0.01 µM, first compound 0.0316 µM
[8] = second compound 0.01 µM, first compound 0.1 µM
[9] = second compound 0.01 µM, first compound 0.316 µM
[10] = second compound 0.01 µM, first compound 1 µM
[11] = second compound 0.01 µM, first compound 3.16 µM
[12] = second compound 0.01 µM, first compound 10 µM
[13] = second compound 0.0316 µM, first compound 0.0316 µM
[14] = second compound 0.0316 µM, first compound 0.1 µM
[15] = second compound 0.0316 µM, first compound 0.316 µM
[16] = second compound 0.0316 µM, first compound 1 µM
[17] = second compound 0.0316 µM, first compound 3.16 µM
[18] = second compound 0.0316 µM, first compound 10 µM
[19] = second compound 0.1 µM, first compound 0.0316 µM
[20] = second compound 0.1 µM, first compound 0.1 µM
[21] = second compound 0.1 µM, first compound 0.316 µM
[22] = second compound 0.1 µM, first compound 1 µM
[23] = second compound 0.1 µM, first compound 3.16 µM
[24] = second compound 0.1 µM, first compound 10 µM
[25] = second compound 0.316 µM, first compound 0.0316 µM
[26] = second compound 0.316 µM, first compound 0.1 µM
[27] = second compound 0.316 µM, first compound 0.316 µM
[28] = second compound 0.316 µM, first compound 1 µM
[29] = second compound 0.316 µM, first compound 3.16 µM
[30] = second compound 0.316 µM, first compound 10 µM
[31] = second compound 1 µM, first compound 0.0316 µM
[32] = second compound 1 µM, first compound 0.1 µM
[33] = second compound 1 µM, first compound 0.316 µM
[34] = second compound 1 µM, first compound 1 µM
[35] = second compound 1 µM, first compound 3.16 µM
[36] = second compound 1 µM, first compound 10 µM
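Note: compound exposure lasted seven days before viability was read.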
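Throughout, for viability, T/C: percent of vehicle DMSO treated spheroid viability so 100% = untreated.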

`CC(C)NCC(C(=O)N1CCN(c2ncnc3c2C(C)CC3O)CC1)c1ccc(Cl)cc1` (stereo unspecified) + CC(Nc1ccc2c(c1)OCCn1cc(N3C(=O)OCC3C(F)F)nc1-2)C(N)=O showed an IC50 (second compound 0.00316 µM) of 1.69 µM, an IC50 (second compound 0.01 µM) of 3.32 µM and an IC50 (second compound 0.0316 µM) of 0.811 µM. It also gave an IC50 (second compound 0.1 µM) of 0.651 µM, an IC50 (second compound 0.316 µM) of 0.724 µM and an IC50 (second compound 1 µM) of 0.328 µM. It also gave a viability, T/C [1] of 76.6%, a viability, T/C [2] of 96.7% and a viability, T/C [3] of 77.9%. The viability, T/C [4] was 58%, the viability, T/C [5] was 41.5% and the viability, T/C [6] was 36.1%. The viability, T/C [7] was 47.5%, the viability, T/C [8] was 75.7% and the viability, T/C [9] was 85%. The viability, T/C [10] was 65.4%, the viability, T/C [11] was 51.1% and the viability, T/C [12] was 28.6%. For the same compound, the viability, T/C [13] was 53.1%, the viability, T/C [14] was 76.5% and the viability, T/C [15] was 65.5%. It also gave a viability, T/C [16] of 46.5%, a viability, T/C [17] of 35.3% and a viability, T/C [18] of 30%. The viability, T/C [19] was 94.9%, the viability, T/C [20] was 84.1% and the viability, T/C [21] was 56.1%. It also gave a viability, T/C [22] of 44%, a viability, T/C [23] of 44% and a viability, T/C [24] of 28.3%. For the same compound, the viability, T/C [25] was 55.5%, the viability, T/C [26] was 75.7% and the viability, T/C [27] was 68.3%. It also gave a viability, T/C [28] of 43.6%, a viability, T/C [29] of 23.4% and a viability, T/C [30] of 24.8%. For the same compound, the viability, T/C [31] was 35.1%, the viability, T/C [32] was 52.9% and the viability, T/C [33] was 63.5%. The viability, T/C [34] was 34.1%, the viability, T/C [35] was 19.8% and the viability, T/C [36] was 28.6%.
In the case of `CCN1CCN(Cc2ccc(Nc3ncc(F)c(-c4cc(F)c5nc(C)n(C(C)C)c5c4)n3)nc2)CC1` + CC(Nc1ccc2c(c1)OCCn1cc(N3C(=O)OCC3C(F)F)nc1-2)C(N)=O, the IC50 (second compound 0.00316 µM) is reported as 0.126 µM, the IC50 (second compound 0.01 µM) is reported as 0.168 µM and the IC50 (second compound 0.0316 µM) is reported as 0.0463 µM. The IC50 (second compound 0.1 µM) was less than 0.00316 µM, the IC50 (second compound 0.316 µM) was 0.0323 µM and the IC50 (second compound 1 µM) was less than 0.00316 µM. The viability, T/C (second compound 0.00316 µM, first compound 0.00316 µM) was 60.1%, the viability, T/C (second compound 0.00316 µM, first compound 0.01 µM) was 67.3% and the viability, T/C [1] was 66%. It also gave a viability, T/C [2] of 49.8%, a viability, T/C [3] of 37.6% and a viability, T/C [4] of 18.1%. The viability, T/C (second compound 0.01 µM, first compound 0.00316 µM) was 59.6%, the viability, T/C (second compound 0.01 µM, first compound 0.01 µM) was 58% and the viability, T/C [7] was 65%. It also gave a viability, T/C [8] of 64.4%, a viability, T/C [9] of 35.6% and a viability, T/C [10] of 15.5%. The viability, T/C (second compound 0.0316 µM, first compound 0.00316 µM) was 83.7%, the viability, T/C (second compound 0.0316 µM, first compound 0.01 µM) was 68.3% and the viability, T/C [13] was 56.8%. For the same compound, the viability, T/C [14] was 39%, the viability, T/C [15] was 28.8% and the viability, T/C [16] was 19.6%. For the same compound, the viability, T/C (second compound 0.1 µM, first compound 0.00316 µM) was 42.6%, the viability, T/C (second compound 0.1 µM, first compound 0.01 µM) was 55.9% and the viability, T/C [19] was 51.3%. It also gave a viability, T/C [20] of 45.1%, a viability, T/C [21] of 28.9% and a viability, T/C [22] of 16.2%. For the same compound, the viability, T/C (second compound 0.316 µM, first compound 0.00316 µM) was 43%, the viability, T/C (second compound 0.316 µM, first compound 0.01 µM) was 51.5% and the viability, T/C [25] was 56%. The viability, T/C [26] was 26.8%, the viability, T/C [27] was 23.3% and the viability, T/C [28] was 14.7%. For the same compound, the viability, T/C (second compound 1 µM, first compound 0.00316 µM) was 44.3%, the viability, T/C (second compound 1 µM, first compound 0.01 µM) was 38% and the viability, T/C [31] was 50.3%. The viability, T/C [32] was 25.4%, the viability, T/C [33] was 22.3% and the viability, T/C [34] was 20.6%.
Work on `Cn1ncc(Cl)c1-c1cc(C(=O)NC(CN)Cc2cccc(F)c2)sc1Cl` (stereo unspecified) + CC(Nc1ccc2c(c1)OCCn1cc(N3C(=O)OCC3C(F)F)nc1-2)C(N)=O yielded an IC50 (second compound 0.00316 µM) greater than 10 µM, an IC50 (second compound 0.01 µM) greater than 10 µM and an IC50 (second compound 0.0316 µM) greater than 10 µM. The IC50 (second compound 0.1 µM) was 0.761 µM, the IC50 (second compound 0.316 µM) was 0.261 µM and the IC50 (second compound 1 µM) was less than 0.0316 µM. The viability, T/C [1] was 107%, the viability, T/C [2] was 69% and the viability, T/C [3] was 60.8%. For the same compound, the viability, T/C [4] was 57.9%, the viability, T/C [5] was 56.5% and the viability, T/C [6] was 116%. It also gave a viability, T/C [7] of 104%, a viability, T/C [8] of 79.4% and a viability, T/C [9] of 53%. For the same compound, the viability, T/C [10] was 72.8%, the viability, T/C [11] was 40.9% and the viability, T/C [12] was 99.8%. For the same compound, the viability, T/C [13] was 102%, the viability, T/C [14] was 73.2% and the viability, T/C [15] was 56.7%. For the same compound, the viability, T/C [16] was 49.2%, the viability, T/C [17] was 35.9% and the viability, T/C [18] was 86%. It also gave a viability, T/C [19] of 80.6%, a viability, T/C [20] of 74.7% and a viability, T/C [21] of 55.5%. For the same compound, the viability, T/C [22] was 39.1%, the viability, T/C [23] was 32.5% and the viability, T/C [24] was 72.8%. The viability, T/C [25] was 70.9%, the viability, T/C [26] was 65.5% and the viability, T/C [27] was 47.1%. For the same compound, the viability, T/C [28] was 41%, the viability, T/C [29] was 28.1% and the viability, T/C [30] was 55.7%. It also gave a viability, T/C [31] of 56.7%, a viability, T/C [32] of 51.1% and a viability, T/C [33] of 43.3%. It also gave a viability, T/C [34] of 31.4%, a viability, T/C [35] of 39% and a viability, T/C [36] of 72.4%.
